Biological target: human BTK (Homo sapiens (Human), UniProt Q06187)
Experiment: Btk enzymatic kinase assay (electrophoretic mobility shift assay)
Assay type: biochemical
Conditions: recombinant full-length human BTK 1 nM, ATP 16 μM, peptide substrate 1 μM, one hour incubation
Protocol: Kinase activity is measured in vitro using electrophoretic mobility shift assay. The kinase reactions are assembled in a total volume of 25 μL in 384 well plates. […] The reaction is incubated for one hour and is quenched by the addition of 45 μL of termination buffer (100 mM HEPES, pH7.5, 0.01% Triton X-100, 30 mM EDTA). The terminated reactions are analyzed using 12 channel LabChip® 3000 microfluidic detection instrument (Caliper Life Sciences). […] Change in the relative fluorescence intensity of the substrate and product peaks is the parameter measured, reflecting enzyme activity. In the presence of an inhibitor, the ratio between product and substrate is altered: the signal of the product decreases, while the signal of the substrate increases.
Activity in each sample is determined as the product to sum ratio (PSR): P/(S+P), where P is the peak height of the product peptide and S is the peak height of the substrate peptide. For each compound, enzyme activity is measured at various concentrations (12 concentrations of compound spaced by 3× dilution intervals). […] Percent inhibition (Pinh) is determined using following equation: […]
The IC50 values of inhibitors are determined by 4 parameter sigmoidal dose-response model fitting of the inhibition curves (Pinh versus inhibitor concentration) using XLfit 4 software.

Chain of human BTK (Q06187 whole entry): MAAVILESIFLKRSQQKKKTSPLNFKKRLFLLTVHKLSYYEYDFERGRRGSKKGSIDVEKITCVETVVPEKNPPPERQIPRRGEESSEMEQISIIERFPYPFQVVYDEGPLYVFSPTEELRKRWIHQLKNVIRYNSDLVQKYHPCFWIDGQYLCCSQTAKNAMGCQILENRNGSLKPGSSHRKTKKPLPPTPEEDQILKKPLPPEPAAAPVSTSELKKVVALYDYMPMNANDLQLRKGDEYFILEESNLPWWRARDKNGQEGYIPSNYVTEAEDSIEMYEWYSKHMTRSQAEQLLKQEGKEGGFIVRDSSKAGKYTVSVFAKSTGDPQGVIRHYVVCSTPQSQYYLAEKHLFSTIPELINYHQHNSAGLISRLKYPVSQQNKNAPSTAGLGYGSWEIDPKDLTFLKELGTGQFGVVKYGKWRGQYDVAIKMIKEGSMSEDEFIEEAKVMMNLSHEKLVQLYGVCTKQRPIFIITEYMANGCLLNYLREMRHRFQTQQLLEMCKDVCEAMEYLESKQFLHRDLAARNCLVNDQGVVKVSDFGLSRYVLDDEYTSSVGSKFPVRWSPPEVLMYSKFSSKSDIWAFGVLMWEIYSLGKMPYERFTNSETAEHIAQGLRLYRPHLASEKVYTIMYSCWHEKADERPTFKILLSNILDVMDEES

## COCCOc1ccc(Nc2ncc(F)c(Nc3cccc(NC(=O)C(O)CO)c3)n2)cc1 (stereo not shown) [Compound 4, N-(3-(5-fluoro-2-(4-(2-methoxyethoxy)phenylamino)pyrimidin-4-ylamino)phenyl)-2,3-dihydroxypropanamide]
  IC50: < 0.5 µM

Reference: US9133134B2, “Inhibitors of bruton's tyrosine kinase” (Pharmacyclics, Inc., priority 2012, dated 2015)
